These results are taken from EP4480471A1, “SPECIFIC COMPOUNDS FOR TREATING SIGNS OF SKIN AGING AND/OR HAIR AGING” (DSM IP Assets B.V., priority 2023, dated 2024).

For the assay, the system named is human dermal fibroblasts. Description: Senolytic activity study: SA-beta-galactosidase flow cytometry on a mixed 70% normal / 30% senescent cell population. Format: cell-based. Conditions: 72 hours; for Senescent cells left from 30%: normalized to untreated control, n = 4. On the procedure:
Normal and senescent cell populations were obtained from normal human dermal fibroblasts. For the normal cell population, the cells were seeded in cell culture medium (Dulbecco's Modified Eagle Medium supplemented with 10% serum and 1% antibiotics) and allowed to adhere and proliferate in a humidified cell incubator maintaining 37°C and 5% CO2. These were then passaged or collected when 90% confluent. For the senescent cell population, the normal fibroblast cells were at this stage shortly exposed to 200 µM H2O2 followed by normal cell culture medium. Several days later, the cells were treated again with H2O2 to obtain a fully senescent population.
Both normal and senescent populations were mixed into a 70% normal and 30% senescent cell population and represented the treatment population. Afterward, the 70% normal and 30% senescent cell population were seeded in cell culture medium and allowed to adhere in the cell incubator. After adherence, the medium was aspirated, and the treatment medium (Dulbecco's Modified Eagle Medium supplemented with 1% serum) containing the respective compounds at various concentrations (see Table 1) was added to the cells. For assay validation purposes, one condition with treatment medium only (without compound as negative control) and one condition with navitoclax (a known senolytic as positive control); both not included in the presented data. The cells were incubated in the cell incubator for at least 72 hours. Afterward, senescence-associated beta-galactosidase was visualized - a well-known senescence marker- in the cells to quantify the senescence levels using flow cytometry.
Data are normalized to the untreated control (30% senescent cells and 70% normal cells) (n = 4).
For orientation: Flow cytometry measures light scatter and fluorescence of single cells or particles in a stream.

The mark [1] stands for this setting: 25 µM, 70% normal and 30% senescent human dermal fibroblasts.
Where [2] appears, read: 1 µM, 70% normal and 30% senescent human dermal fibroblasts.
Setting [3] is: 5 µM, 70% normal and 30% senescent human dermal fibroblasts.
The mark [4] stands for this setting: concentration not given, human dermal fibroblasts.

As for `COc1cc([C@@H]2CC(=O)c3c(O)cc(O)cc3O2)ccc1O` [(I"1)], under setting [1], the Senolytic effect entry was “yes” and the “Senescent cells left from 30%” value is 23%.

With `O=C1c2c(O)cc(O)cc2O[C@H](c2cc(O)c(O)c(O)c2)[C@H]1O` [(I"2)], the Senolytic effect result under setting [2] is listed as “yes”, the Senolytic effect result under setting [3] is on record as “yes” and the Senolytic effect result under setting [1] is “yes”.

For the molecule `O=C1c2c(O)cc(O)cc2OC(c2cc(O)c(O)c(O)c2)C1O` (centres unmarked) [(I"3)], the Senolytic effect result under setting [2] is recorded as “yes”, the Senolytic effect result under setting [3] is given as “yes” and the Senolytic effect entry under setting [1] is “yes”.

For the molecule `COc1ccc(C2CC(=O)c3c(O)cc(O)cc3O2)cc1O` (centres unmarked) [(I"4)], the Senolytic effect entry is on record as “yes” under setting [2], “yes” under setting [3] and “yes” under setting [1].

As to `O=C1CC(c2ccccc2)Oc2ccc(O)cc21` (centres unmarked) [(I"5)], the Senolytic effect result is given as “yes” under setting [2], “yes” under setting [3] and “yes” under setting [1].

As to `COc1cc(O)c2c(c1)OC(c1ccccc1)CC2=O` (centres unmarked) [(I"6)], the Senolytic effect entry under setting [2] was “yes”, the Senolytic effect entry under setting [3] was “yes” and the Senolytic effect result under setting [1] is “yes”.

As for `COc1cc(O)c2c(c1)OC(c1ccc(O)cc1)CC2=O` (centres unmarked) [(I"7)], the Senolytic effect result under setting [2] is reported as “yes”, the Senolytic effect entry under setting [3] is “yes” and the Senolytic effect entry under setting [1] is reported as “yes”.

For `O=C1CC(c2ccccc2)Oc2cc(O)ccc21` (centres unmarked) [(I"8)], the Senolytic effect result is given as “yes” under setting [2], “yes” under setting [3] and “yes” under setting [4]. Also, the “Senescent cells left from 30%” value runs as follows: under setting [2], 24%; under setting [3], 24%.

Consider `COc1cc(C2CC(=O)c3c(O)cc(O)cc3O2)ccc1O` (centres unmarked) [(I"10)], for which, under setting [1], the Senolytic effect entry is on record as “yes” and the “Senescent cells left from 30%” value amounted to 22%. Also, under setting [4], the Senolytic effect result is on record as “yes”.

On to `O=C1CC(c2ccc(O)c(O)c2)Oc2cc(O)cc(O)c21` (centres unmarked) [(I"11)], for which the Senolytic effect result is recorded as “yes” under setting [2], “yes” under setting [3] and “yes” under setting [4].

On to `O=c1cc(-c2ccc(O)c(O)c2)oc2c(O)c(O)ccc12` [(I'1)], for which the Senolytic effect result by setting is: under setting [2], “yes”; under setting [3], “yes”; under setting [1], “yes”.

Regarding `O=c1c(-c2ccc(O)c(O)c2)coc2cc(O)ccc12` [(I'2)], the Senolytic effect result runs as follows: under setting [2], “yes”; under setting [3], “yes”; under setting [1], “yes”.

As to `COc1cc(-c2oc3cc(O)ccc3c(=O)c2O)cc(OC)c1OC` [(I'3)], the Senolytic effect entry was “yes” under setting [2], “yes” under setting [3] and “yes” under setting [1].

Take `COc1cc(C)c2c(=O)c(-c3ccccc3)coc2c1` [(I'4)]: the Senolytic effect entry is given as “yes” under setting [2], “yes” under setting [3] and “yes” under setting [1].

Consider `COc1ccc(-c2cc(=O)c3c(OC)cc(OC)cc3o2)cc1` [(I'5)], for which the Senolytic effect entry runs as follows: under setting [2], “yes”; under setting [3], “yes”; under setting [1], “yes”.

`COc1cc2oc(-c3ccccc3)cc(=O)c2c(O)c1O` [(I'6)]: the Senolytic effect entry is given as “yes” under setting [2], “yes” under setting [3] and “yes” under setting [1].

As to `COc1ccc(-c2coc3cc(O)cc(O)c3c2=O)cc1` [(I'7)], the Senolytic effect result by setting is: under setting [2], “yes”; under setting [3], “yes”; under setting [1], “yes”.

For the molecule `COc1cc(-c2cc(=O)c3c(O)cc(O)cc3o2)ccc1O` [(I'8)], the Senolytic effect entry is “yes” under setting [2], “yes” under setting [3] and “yes” under setting [1].

Turning to `O=c1cc(-c2ccc(O)cc2)oc2c(-c3c(O)cc(O)c4c(=O)cc(-c5ccc(O)cc5)oc34)c(O)cc(O)c12` [(I'9)], the Senolytic effect entry is “yes” under setting [2], “yes” under setting [3] and “yes” under setting [1].

On to `O=c1c(O)c(-c2ccc(O)cc2)oc2c(O)c(O)cc(O)c12` [(I'10)], for which the Senolytic effect entry under setting [3] was “yes” and the Senolytic effect entry under setting [1] is “yes”.

Turning to `COc1ccc(-c2cc(=O)c3c(O)cc(O[C@@H]4O[C@H](CO)[C@@H](O)[C@H](O)[C@H]4O)cc3o2)cc1O` [(I'11)], the Senolytic effect entry by setting is: under setting [3], “yes”; under setting [1], “yes”.

As for `CC1OC(Oc2c(-c3cc(O)c(O)c(O)c3)oc3cc(O)cc(O)c3c2=O)C(O)C(O)C1O` (centres unmarked) [(I'14)], the Senolytic effect entry is, setting by setting: under setting [2], “yes”; under setting [3], “yes”; under setting [1], “yes”.

Turning to `COc1c(O[C@@H]2O[C@H](CO)[C@@H](O)[C@H](O)[C@H]2O)cc2oc(-c3ccc(O)c(O)c3)c(O)c(=O)c2c1O` [(I'15)], the Senolytic effect result under setting [2] is listed as “yes”, the Senolytic effect entry under setting [3] is listed as “yes” and the Senolytic effect entry under setting [1] is listed as “yes”.

As for `CC(C)Oc1ccc2c(=O)c(-c3ccccc3)coc2c1` [(I'16)], the Senolytic effect result was “yes” under setting [2], “yes” under setting [3] and “yes” under setting [1].

Turning to `O=c1c(O)c(-c2ccc(O)cc2)oc2cc(O)cc(O)c12` [(I'17)], the Senolytic effect entry under setting [2] is “yes”, the Senolytic effect entry under setting [3] is listed as “yes” and the Senolytic effect result under setting [1] is reported as “yes”.

Take `COc1c(O)cc2oc(-c3ccc(O)c(O)c3)cc(=O)c2c1O` [(I'18)]: the Senolytic effect entry is recorded as “yes” under setting [2], “yes” under setting [3] and “yes” under setting [1].

Consider `COc1cc(O)c2c(=O)c(O)c(-c3ccc(O)c(OC)c3)oc2c1` [(I'19)], for which the Senolytic effect entry reads like this: under setting [2], “yes”; under setting [3], “yes”; under setting [1], “yes”.

In the case of `COc1cc(O)c2c(=O)c(O)c(-c3ccc(O)c(O)c3)oc2c1` [(I'20)], the Senolytic effect entry under setting [2] is “yes”, the Senolytic effect entry under setting [3] is reported as “yes” and the Senolytic effect entry under setting [1] is reported as “yes”.

As to `O=c1c(O)c(-c2cc(O)c(O)c(O)c2)oc2cc(O)ccc12` [(I'21)], the Senolytic effect entry is recorded as “yes” under setting [2], “yes” under setting [3] and “yes” under setting [1].

In the case of `O=c1cc(-c2cc(O)c(O)c(O)c2)oc2cc(O)cc(O)c12` [(I'22)], the Senolytic effect result under setting [2] is given as “yes”, the Senolytic effect entry under setting [3] is “yes” and the Senolytic effect entry under setting [1] is “yes”.

Take `COc1c(-c2ccccc2)oc2ccccc2c1=O` [(I'23)]: under setting [1], the Senolytic effect entry is “yes” and the “Senescent cells left from 30%” value was 21%. Further, the Senolytic effect result under setting [4] is “yes”.

Regarding `COc1cc2oc(-c3ccccc3)cc(=O)c2c(OC)c1OC` [(I'24)], the Senolytic effect result was “yes” under setting [3], “yes” under setting [1] and “yes” under setting [4].

With `O=c1c(O)c(-c2ccccc2O)oc2cc(O)cc(O)c12` [(I'25)], the Senolytic effect entry reads like this: under setting [2], “yes”; under setting [3], “yes”; under setting [1], “yes”.

As for `O=c1c(-c2ccc(O)cc2)coc2cc(O[C@@H]3O[C@H](CO)[C@@H](O)[C@H](O)[C@H]3O)ccc12` [(I'26)], the Senolytic effect entry runs as follows: under setting [2], “yes”; under setting [4], “yes”. Further, under setting [2], the “Senescent cells left from 30%” value is 25%.

`COc1ccc(-c2cc(=O)c3c(O)cc(O)cc3o2)cc1O` [(I'27)]: the Senolytic effect entry runs as follows: under setting [2], “yes”; under setting [3], “yes”; under setting [1], “yes”.

As to `COc1cc2c(=O)c(-c3ccc(O)cc3)coc2cc1O` [(I'28)], under setting [1], the Senolytic effect entry is “yes” and the “Senescent cells left from 30%” value is 23%. For the same molecule, under setting [4], the Senolytic effect result is listed as “yes”.

Turning to `COc1cc(-c2cc(=O)c3c(O)c(OC)c(OC)c(OC)c3o2)cc(OC)c1OC` [(I'29)], the Senolytic effect result reads like this: under setting [2], “yes”; under setting [3], “yes”; under setting [1], “yes”.

`COc1cc(-c2coc3cc4c(c(OC)c3c2=O)OCO4)cc(OC)c1OC` [(I'30)]: under setting [1], the Senolytic effect result is reported as “yes” and the “Senescent cells left from 30%” value is reported as 26%. Further, the Senolytic effect result under setting [4] is listed as “yes”.

In the case of `COc1ccc(-c2cc(=O)c3ccc(O)cc3o2)cc1` [(I'32)], the Senolytic effect entry under setting [2] was “yes”, the Senolytic effect result under setting [3] was “yes” and the Senolytic effect entry under setting [1] was “yes”.

As to `COc1ccc(-c2cc(=O)c3c(OC)c(OC)c(OC)cc3o2)cc1` [(I'33)], the Senolytic effect entry runs as follows: under setting [2], “yes”; under setting [3], “yes”; under setting [1], “yes”.
